How the values were obtained:
[1] = Octanol-water partition coefficient, log Kow of the compound
Albumin = Albumin (Homo sapiens, UniProt P02768); assay: Binding affinity to human serum albumin; settings: isolated protein
Chain of Albumin (P02768 whole entry): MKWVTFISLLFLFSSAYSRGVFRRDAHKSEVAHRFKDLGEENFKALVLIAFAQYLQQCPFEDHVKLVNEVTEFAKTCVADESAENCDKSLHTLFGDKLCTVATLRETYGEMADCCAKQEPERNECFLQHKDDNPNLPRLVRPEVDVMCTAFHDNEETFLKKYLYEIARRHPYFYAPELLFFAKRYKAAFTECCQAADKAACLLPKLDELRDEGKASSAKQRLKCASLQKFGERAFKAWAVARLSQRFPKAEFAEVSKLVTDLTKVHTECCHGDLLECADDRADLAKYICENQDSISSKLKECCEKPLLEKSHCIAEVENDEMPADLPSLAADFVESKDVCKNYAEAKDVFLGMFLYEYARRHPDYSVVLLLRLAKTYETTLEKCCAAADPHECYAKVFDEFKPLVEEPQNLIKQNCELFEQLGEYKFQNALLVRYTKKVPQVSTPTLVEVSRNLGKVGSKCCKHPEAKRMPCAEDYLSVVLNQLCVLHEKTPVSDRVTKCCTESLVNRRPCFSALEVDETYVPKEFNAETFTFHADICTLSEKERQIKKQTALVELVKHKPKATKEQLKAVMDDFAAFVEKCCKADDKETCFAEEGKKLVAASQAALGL

Structure (SMILES) | logP [1] | logKA (Albumin)
O=C(O)Cc1c[nH]c2ncccc12 | 0.45 | -0.314
O=C(O)Cc1c[nH]c2ccc(OCc3ccccc3)cc12 | 3.2 | 
Cc1ccc2[nH]cc(CC(=O)O)c2c1 | 1.99 | 0.217
O=C(O)Cc1c[nH]c2cc(Cl)c(Cl)cc12 | 3.2 | 1.436
CCCc1ccc2[nH]cc(CC(=O)O)c2c1 | 3.21 | 0.809
O=C(O)Cc1c[nH]c2cc(F)ccc12 | 1.74 | 0.308
O=C(O)Cc1c[nH]c2cccc(Cl)c12 | 2.13 | 0.458
O=C(O)Cc1c[nH]c2cccc(F)c12 | 1.66 | 0.305
CCCc1[nH]c2ccccc2c1CC(=O)O | 2.56 | 0.15
O=C(O)Cc1c[nH]c2c(F)cccc12 | 1.81 | 0.247
O=C(O)Cc1c[nH]c2ccc(Cl)c(Cl)c12 | 2.92 | 0.799
CCCCc1ccc2[nH]cc(CC(=O)O)c2c1 | 3.89 | 1.05
Cn1cc(CC(=O)O)c2ccccc21 | 1.87 | 0.243
O=C(O)Cc1c[nH]c2c(Cl)ccc(Cl)c12 | 3.02 | 0.84
COc1ccc2[nH]c(C)c(CC(=O)O)c2c1 [DESCHLOROBENZOYL INDOMETHACIN] | 2.14 | 0.228
Cc1cccc2[nH]cc(CC(=O)O)c12 | 1.84 | 0.155
O=C(O)Cc1c[nH]c2cc(Cl)ccc12 | 2.41 | 0.863

Structure (SMILES) | logP [1] | logKA (Albumin)
Cc1ccc2c(CC(=O)O)c[nH]c2c1 | 1.96 | 0.689
Cc1cccc2c(CC(=O)O)c[nH]c12 | 1.95 | 0.288
O=C(O)Cc1c[nH]c2ccccc12 [INDOLE-3-ACETIC ACID] | 1.42 | 0.102
O=C(O)Cc1c[nH]c2c(Cl)cccc12 | 2.32 | 0.623
CCc1[nH]c2ccccc2c1CC(=O)O | 2.09 | 0.031
O=C(O)Cc1c[nH]c2c(Cl)c(Cl)ccc12 | 3.16 | 1.09
COc1ccc2[nH]cc(CC(=O)O)c2c1 | 1.23 | 0.185
O=C(O)Cc1c[nH]c2ccc(Cl)cc12 | 2.38 | 0.646
Cc1[nH]c2ccccc2c1CC(=O)O | 1.72 | -0.04
CCc1cccc2[nH]cc(CC(=O)O)c12 | 2.33 | 0.393
CCc1ccc2[nH]cc(CC(=O)O)c2c1 | 2.54 | 0.49
O=C(O)Cc1c[nH]c2cc(Cl)cc(Cl)c12 | 3.29 | 1.082
CCc1ccc2c(CC(=O)O)c[nH]c2c1 | 2.56 | 1.044
CCOC(=O)Cc1c[nH]c2ccccc12 | 2.34 | 0.292
O=C(O)Cc1c[nH]c2c(Cl)cc(Cl)cc12 | 3.42 | 0.983
O=C(O)Cc1c[nH]c2ccc(F)cc12 | 1.72 | 0.261
O=C(O)Cc1c[nH]c2ccc(O)cc12 | 0.74 | -0.125
